Measured values reported in PMC4063695, “Design of Embedded-Hybrid Antimicrobial Peptides with Enhanced Cell Selectivity and Anti-Biofilm Activity” (PLoS ONE, 2014).
No end group written: not given here.

What was measured:
[1] = tested on: B. subtilis CMCC63501; conditions: B. subtilis CMCC63501; MHB, 37°C, 18-24 h; at least three times in duplicate
Excerpt: (§1) E. coli ATCC25922, P. aeruginosa ATCC27853, S. aureus ATCC29213, S. epidermidis ATCC12228, S. faecalis ATCC29212 and B. subtilis CMCC63501 were obtained from the College of Veterinary Medicine, Northeast Agricultural University (Harbin, China), E. coli K88, E. coli CVCC1515 and P. aeruginosa ATCC15442 were bestowed by Prof. J.H. Wang (Gene Engineering Laboratory, Feed Research Institute, Chinese Academy of Agricultural Sciences Beijing, China) and E. coli UB1005 was kindly provided by Prof. Q.S. Qi (State Key Laboratory of Microbial Technology, Shandong University, China). […] Briefly, 50 µl of approximate 0.5–1 × 10^6 colony forming units (CFU)/ml of cells were diluted in Mueller-Hinton broth and distributed to 96-well plate, 50 µl of twofold peptides were added and the plates was incubated at 37°C for 18–24 h. The MIC values were calculated as the lowest peptide concentration that prevented visible turbidity and negative control of the pure broth without microbes. The tests were performed at least three times in duplicate.

[2] = tested on: E. coli ATCC25922; conditions: E. coli ATCC25922; MHB, 37°C, 18-24 h; at least three times in duplicate
Excerpt: as §1

[3] = tested on: E. coli CVCC1515; conditions: E. coli CVCC1515; MHB, 37°C, 18-24 h; at least three times in duplicate
Excerpt: as §1

[4] = tested on: E. coli K88; conditions: MHB, 37°C, 18-24 h, at least three times in duplicate
Excerpt: as §1

[5] = tested on: E. coli UB1005; conditions: E. coli UB1005; MHB, 37°C, 18-24 h; at least three times in duplicate
Excerpt: as §1

[6] = tested on: P. aeruginosa ATCC15442; conditions: P. aeruginosa ATCC15442; MHB, 37°C, 18-24 h; at least three times in duplicate
Excerpt: as §1

[7] = tested on: P. aeruginosa ATCC27853; conditions: P. aeruginosa ATCC27853; MHB, 37°C, 18-24 h; at least three times in duplicate
Excerpt: as §1

[8] = tested on: P. aeruginosa variant 1; conditions: P. aeruginosa variant 1, obtained by step-wise culture with ciprofloxacin hydrochloride; MHB, 37°C, 18-24 h
Excerpt: as §1

[9] = tested on: P. aeruginosa variant 2; conditions: P. aeruginosa variant 2, obtained by step-wise culture with gentamicin; MHB, 37°C, 18-24 h
Excerpt: as §1

[10] = tested on: S. pullorum C79-13; conditions: S. pullorum C79-13; MHB, 37°C, 18-24 h; at least three times in duplicate
Excerpt: as §1

[11] = tested on: S. typhimurium ATCC14028; conditions: S. typhimurium ATCC14028; MHB, 37°C, 18-24 h; at least three times in duplicate
Excerpt: as §1

[12] = tested on: S.aureus ATCC29213; conditions: S.aureus ATCC29213; MHB, 37°C, 18-24 h; at least three times in duplicate
Excerpt: as §1

[13] = tested on: S.epidermidis ATCC12228; conditions: S.epidermidis ATCC12228; MHB, 37°C, 18-24 h; at least three times in duplicate
Excerpt: as §1

[14] = tested on: S.faecalis ATCC29212; conditions: S.faecalis ATCC29212; MHB, 37°C, 18-24 h; at least three times in duplicate
Excerpt: as §1

[15] = tested on: Gram-negative and Gram-positive strains; test: MIC over all tested strains (range, geometric mean); assay type: cell-based; design: GM (geometric mean of MIC values from all microbial strains): unit not given here
Excerpt: as §1

[16] = tested on: human red blood cells (hRBC); test: Hemolytic activity; assay type: cell-based; conditions: minimum concentration that caused 5% hemolysis of hRBC (footnote); 1% hRBC in PBS pH 7.4, 1 h, 37°C, OD 492 nm
Method: The amount of released hemoglobin by the lysis of erythrocytes was measured for hemolytic activity of peptides. Human erythrocytes were obtained from a healthy donor with written informed consent. The experimental protocol was reviewed and approved by the ethics committee of the Northeast Agricultural University Hospital. The measurement was based on a previously described method. The fresh hRBCs were washed three times by centrifugation (1000 g, 5 min, 4°C) in PBS (pH 7.4), and then resuspended in PBS to obtain the erythrocyte with a dilution of approximately 1% (v/v). Then, 50 µL of hRBCs solution was incubated with 50 µL of different concentrations of the peptides dissolved in PBS for 1 h at 37°C, before centrifugation (1000 g, 5 min, 4°C) again. The absorbance of the supernatants was measured at optical density (OD) 492 nm. […] The control samples for 0% and 100% hemolysis consisted of hRBCs in PBS (Ablank) only and in 0.1% Triton X-100 (Atriton), respectively. The percentage of hemolysis was calculated according to the following equation: [drawing 3]

Substance: RKKTRKR-NH2 [RR7]
- MIC [1]: >256 µM
- MIC [2]: >256 µM
- MIC [3]: >256 µM
- MIC [4]: >256 µM
- MIC [5]: >256 µM
- MIC [6]: >256 µM
- MIC [7]: >256 µM
- MIC [8]: >256 µM
- MIC [9]: >256 µM
- MIC [10]: >256 µM
- MIC [11]: >256 µM
- MIC [12]: >256 µM
- MIC [13]: >256 µM
- MIC [14]: >256 µM
- antimicrobial activity (in words) ([15]; Gram-negative and Gram-positive strains): poor antimicrobial activity
- GM (geometric mean of MIC values from all microbial strains) ([15]; all strains of Table 2): 256
- MHC [16]: >256 µM

Substance: RFRRLRKKTRKRLKKI-NH2 [RI16]
- MIC [1]: 64 µM
- MIC [2]: 128 µM
- MIC [3]: 128 µM
- MIC [4]: >256 µM
- MIC [5]: 128 µM
- MIC [6]: >256 µM
- MIC [7]: 128 µM
- MIC [8]: >256 µM
- MIC [9]: >256 µM
- MIC [10]: 64 µM
- MIC [11]: 64 µM
- MIC [12]: 128 µM
- MIC [13]: 32 µM
- MIC [14]: 128 µM
- MHC [16]: >256 µM
